Measured values reported in PubChem BioAssay AID2060489 (Molecular Pharmacology Branch, DTP, NCI, 2025).

System: 922993-354-T-J3-PDC complex spheroids, viability
Experiment: Anticancer human tumor 922993-354-T-J3-PDC patient-derived endometrial carcinoma cell line growth inhibition [GQUAD]
Conditions: for IC50: curve of first compound; for viability, T/C: stronger effect = lower value; active = viability on the fitted dose curve at most 10% of control; inactive = the rest
Source text: DNA G-quadruplex Stabilizer Agents in Combinations in Complex Spheroids
A high-throughput screen of multi-cell type tumor spheroids was designed to identify active combinations of DNA G-quadruplex stabilizer agents and targeted small molecules. Complex spheroids include a stromal component modeled by human endothelial cells (HUVEC) and fibroblasts modeled by human mesenchymal stem cells (MSCs). The concentration ranges selected for each drug and investigational agent were based upon clinically achievable concentrations if the clinical Cmax of the agent was known.
Compounds. The drugs and investigational agents: pidnarulex (CX-5461; NSC782164), APTO-253 (NSC789042), BRACO-19 (NSC847499), peposertib (NSC802822), ceralasertib (NSC780249), elimusertib (NSC800525), camonsertib (NSC841442), AZD-1390 (NSC803789), olaparib (NSC753686), talazoparib (NSC767125), ART-558 (NSC835418), sotorasib (NSC818433), MRTX-1133 (NSC836407), SN-38 (NSC673596), topotecan (NSC609699), etoposide (NSC141540), doxorubicin (NSC123127), gemcitabine (NSC613327), 5-fluorouracil (NSC19893), paclitaxel (NSC125973), vemurafenib (NSC761431), panobinostat (NSC761190), R-306465 (JNJ-16241199; NSC773264), adavosertib (NSC754352), TP-3654 (NSC805149), carboplatin (NSC241240), KSQ-4279 (NSC840948), and staurosporine (NSC755774) were obtained from the National Cancer Institute (NCI) Developmental Therapeutics Program Chemical Repository (34). The FDA-approved anticancer drug set is available from the NCI Developmental Therapeutics Program. […] The stock solutions were prepared in dimethyl sulfoxide (DMSO, Sigma-Aldrich, St. Louis, MO, cat. D2650) at 800-fold the tested concentration and stored at -70 degrees C prior to their use. All drugs and investigational agents were tested over a range starting from a high concentration at or near the clinical Cmax and decreasing in half-log increments. If the clinical Cmax for an agent had not been determined, the highest concentration tested was 10 microM.
2.3 Cell Culture. All cells were maintained in an incubator at 37 degrees C and 5% CO2 with 95% humidity. The PDC lines were cultured according to standard operating procedures established by the NCI PDMR. All PDCs were thawed and cultured in Matrigel-coated flasks prepared with a working solution of 1X Ham's F-12 nutrient mix, without supplementation (Invitrogen, cat. 11765054), 100 U/mL penicillin-streptomycin (Invitrogen, cat. 15140122), and 2.5% Matrigel (Corning Inc., cat. 354248) for the first three passages. The 857933-349-R-J2-PDC line was cultured in 6C/Colon 1B media, which includes advanced DMEM/F-12 (Thermo Fisher Scientific, cat. 12634028), 10 mM HEPES (Thermo Fisher Scientific, cat. 15630080), 1X GlutaMAX supplement (Thermo Fisher Scientific, cat. 35050061), 0.1 mg/mL primocin (InvivoGen, cat. ant-pm-2), 10% defined fetal bovine serum, heat inactivated (HyClone Laboratories Inc., cat. SH30070.03HI), 50% L-WRN conditioned media (ATCC, cat. CRL-3276), 1.25 mM N-Acetyl-L-cysteine (Sigma-Aldrich, cat. A9165), 10 mM nicotinamide (Sigma-Aldrich, cat. N0636), 1X B-27 supplement (Thermo Fisher Scientific, cat. 17504044), 1X N-2 supplement (Thermo Fisher Scientific, cat. 17502048), 10 microM Y-27632 dihydrochloride (Tocris Bioscience, cat. 1254), and 50 ng/mL human EGF recombinant protein (Thermo Fisher Scientific, cat. PHG0311). The 485176-168-R4-J1-PDC line was cultured in Panc media, which includes all 6C/Colon 1B media components plus 100 ng/mL human FGF-10 (Thermo Fisher Scientific, cat. 100-26), 500 nM SB-431542 (Selleckchem, cat. S1067), and gastrin (Tocris, cat. 3006).
[…]

[1] = second compound 0.0316 µM, first compound 0.0316 µM
[2] = second compound 0.0316 µM, first compound 0.1 µM
[3] = second compound 0.0316 µM, first compound 0.316 µM
[4] = second compound 0.0316 µM, first compound 1 µM
[5] = second compound 0.0316 µM, first compound 3.16 µM
[6] = second compound 0.0316 µM, first compound 10 µM
[7] = second compound 0.1 µM, first compound 0.0316 µM
[8] = second compound 0.1 µM, first compound 0.1 µM
[9] = second compound 0.1 µM, first compound 0.316 µM
[10] = second compound 0.1 µM, first compound 1 µM
[11] = second compound 0.1 µM, first compound 3.16 µM
[12] = second compound 0.1 µM, first compound 10 µM
[13] = second compound 0.316 µM, first compound 0.0316 µM
[14] = second compound 0.316 µM, first compound 0.1 µM
[15] = second compound 0.316 µM, first compound 0.316 µM
[16] = second compound 0.316 µM, first compound 1 µM
[17] = second compound 0.316 µM, first compound 3.16 µM
[18] = second compound 0.316 µM, first compound 10 µM
[19] = second compound 1 µM, first compound 0.0316 µM
[20] = second compound 1 µM, first compound 0.1 µM
[21] = second compound 1 µM, first compound 0.316 µM
[22] = second compound 1 µM, first compound 1 µM
[23] = second compound 1 µM, first compound 3.16 µM
[24] = second compound 1 µM, first compound 10 µM
[25] = second compound 3.16 µM, first compound 0.0316 µM
[26] = second compound 3.16 µM, first compound 0.1 µM
[27] = second compound 3.16 µM, first compound 0.316 µM
[28] = second compound 3.16 µM, first compound 1 µM
[29] = second compound 3.16 µM, first compound 3.16 µM
[30] = second compound 3.16 µM, first compound 10 µM
[31] = second compound 10 µM, first compound 0.0316 µM
[32] = second compound 10 µM, first compound 0.1 µM
[33] = second compound 10 µM, first compound 0.316 µM
[34] = second compound 10 µM, first compound 1 µM
[35] = second compound 10 µM, first compound 3.16 µM
[36] = second compound 10 µM, first compound 10 µM
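Note: spheroids exposed to compounds for seven days.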

CC(C)n1c(=O)n(C)c2cnc3cc(F)c(-c4ccc(OCCCN5CCCCC5)nc4)cc3c21 + CN(C)c1ccc(Nc2c3ccc(NC(=O)CCN4CCCC4)cc3nc3cc(NC(=O)CCN4CCCC4)ccc23)cc1
1820 nM: IC50 (second compound 10 µM)
inactive: viability, T/C [1] 118% | viability, T/C [2] 84.9% | viability, T/C [3] 99.3% | viability, T/C [4] 59.6% | viability, T/C [5] 91.7% | viability, T/C [6] 71.4% | viability, T/C [7] 114% | viability, T/C [8] 89.5% | viability, T/C [9] 101% | viability, T/C [10] 73.3% | viability, T/C [11] 81.7% | viability, T/C [12] 59% | viability, T/C [13] 99.3% | viability, T/C [14] 91.7% | viability, T/C [15] 97% | viability, T/C [16] 70.2% | viability, T/C [17] 84.7% | viability, T/C [18] 70.9% | viability, T/C [19] 81.2% | viability, T/C [20] 97% | viability, T/C [21] 92.2% | viability, T/C [22] 82.1% | viability, T/C [23] 77.1% | viability, T/C [24] 65% | viability, T/C [25] 96.8% | viability, T/C [26] 103% | viability, T/C [27] 98.5% | viability, T/C [28] 76% | viability, T/C [29] 67.6% | viability, T/C [30] 43% | viability, T/C [31] 114% | viability, T/C [32] 73.7% | viability, T/C [33] 114% | viability, T/C [34] 67% | viability, T/C [35] 36.1% | viability, T/C [36] 32.3%
7040 nM: IC50 (second compound 3.16 µM)
> 10000 nM: IC50 (second compound 0.0316 µM) | IC50 (second compound 0.1 µM) | IC50 (second compound 0.316 µM) | IC50 (second compound 1 µM)

CC1COCCN1c1cc(-c2ccnn2C)c2ccnc(-c3ccn[nH]3)c2n1 (centres undefined) + CN(C)c1ccc(Nc2c3ccc(NC(=O)CCN4CCCC4)cc3nc3cc(NC(=O)CCN4CCCC4)ccc23)cc1
inactive: viability, T/C [1] 98.4% | viability, T/C [2] 73.4% | viability, T/C [3] 50.3% | viability, T/C [4] 16.7% | viability, T/C [5] 18% | viability, T/C [6] 20% | viability, T/C [7] 110% | viability, T/C [8] 68.2% | viability, T/C [9] 36.1% | viability, T/C [10] 18.2% | viability, T/C [11] 20.2% | viability, T/C [12] 12.3% | viability, T/C [13] 105% | viability, T/C [14] 58.1% | viability, T/C [15] 46.9% | viability, T/C [16] 16.8% | viability, T/C [17] 16.5% | viability, T/C [18] 19.6% | viability, T/C [19] 84.8% | viability, T/C [20] 64.2% | viability, T/C [21] 54.2% | viability, T/C [22] 22.9% | viability, T/C [23] 19.1% | viability, T/C [24] 21.4% | viability, T/C [25] 119% | viability, T/C [26] 52.7% | viability, T/C [27] 54.3% | viability, T/C [28] 18.2% | viability, T/C [29] 21.3% | viability, T/C [30] 22.4% | viability, T/C [31] 130% | viability, T/C [32] 79.8% | viability, T/C [33] 65.2% | viability, T/C [34] 25.6% | viability, T/C [35] 21.2% | viability, T/C [36] 19.6%
190 nM: IC50 (second compound 0.1 µM)
260 nM: IC50 (second compound 0.0316 µM)
176 nM: IC50 (second compound 3.16 µM)
175 nM: IC50 (second compound 0.316 µM)
278 nM: IC50 (second compound 1 µM)
396 nM: IC50 (second compound 10 µM)
